Source: US20240199455A1, “REMOVAL OF TOXIC OXYANIONS BY CO-CRYSTALLIZATION WITH SULFATE” (UT-Battelle, LLC, priority 2022, published 2024)

Columns and labels:
[1] = Crystallization at constant 2.5 mM sulfate and decreasing selenate (2.5 mM to 2.5 μM); conditions: 2.5 mM sulfate
Procedure: (§1) In a typical experiment, BIG chloride was added to wastewater containing sulfate, selenate, and/or selenite anions, and immediately upon addition, a white precipitate formed. The resulting suspensions were mixed for 24 h using a rotator set at 60 rpm inside an incubator set to 25 C. The samples were then removed and centrifuged for 10 min at 3000 rpm to separate the aqueous and solid phases. In the field, the suspended solids were filtered through a filter press. A 1 mL aliquot was then removed from each sample and passed through a 0.02 μm syringe filter to ensure any suspended solid was removed from the filtrate prior to diluting the samples in 2% HNO3 for ICP-MS analysis. To recover the BIG ligand, 2.1 equiv. of NaOH (or adjusted to a pH of 11) was added to a suspension of the BIG-oxyanion salts in a 15 mL polypropylene centrifuge tube. The suspension was mixed for 24 h at 60 rpm. The suspended BIG neutral solid was filtered from the supernatant solutions containing the oxyanions dissolved as soluble sodium salts. The BIG chloride salts were then regenerated by the addition of 0.1 M HCl to the neutral ligands. This process is depicted schematically in FIG. 5.
Crystallization experiments were carried out keeping sulfate at a constant concentration and decreasing the selenate concentration while maintaining constant ionic strength to mimic wastewater conditions. These experiments were carried out at 1 and 2 molar equivalents of BBIG or PyBIG. […] At lower selenate concentrations of 250, 25, and 2.5 μM, there is no discernible preference between the oxyanions. […] At the lowest concentration of selenate, the amount remaining in solution after crystallization is below the limit of detection of 0.02 ppb Se. The same trend is observed for PyBIG, with near quantitative removal of both sulfate and selenate.

[2] = Cocrystallization from simulated Bull Run groundwater
Procedure: as §1
The efficacies of sulfate and selenate removal with BBIG and PyBIG ligands were next tested with simulated wastewater to determine if the EPA's 5 ppb discharge limit was achievable. The initial concentrations of sulfate and selenate in the simulated wastewater were based on typical values found in groundwaters monitored at the Bull Run steam plant of Tennessee Valley Authority (TVA). The simulated Bull Run groundwater contained an 8985-fold excess concentration of sulfate relative to selenate, with sulfate and selenate concentrations of 5.84±0.11 mM and 0.65±0.07 μM, respectively. Cocrystallization studies were performed with 1 and 2 mol equiv of BBIG or PyBIG. […] On the other hand, selenate removal was near quantitative with 2 equiv of BBIG (FIG. 4a).

[3] = Cocrystallization from simulated Bull Run leachate
Procedure: as §1
A more concentrated simulated wastewater solution based on Bull Run's leachate water that has leached from fly ash beds was also tested with BBIG and PyBIG. The concentrations of sulfate and selenate in the simulated leachate were 48.49±0.7 mM and 2.37±0.16 μM, respectively, with sulfate concentration being 20,460 times higher than that of selenate. In the case of BBIG, 1 equiv removed 96.3% and 95.4% sulfate and selenate, respectively, while 2 equiv removed sulfate and selenate near quantitatively at 99.90% and 99.94%, respectively, with a final Se concentration of 8.59±0.62 ppb (1 equiv) and 0.20±0.01 ppb (2 equiv). In the case of PyBIG, 89.2% and 85.5% sulfate and selenate, respectively, were removed with 1 equiv, and 99.98% and 99.99%, respectively with 2 equiv. The final Se concentrations after cocrystallization with PyBIG were 27.23±0.92 ppb (1 equiv) and 0.02±0.01 ppb (2 equiv), reaching the limit of detection. […] In fact, the large excess of sulfate present in the wastewaters appears to help remove trace amounts of selenate by cocrystallization with BBIG or PyBIG, down to sub-ppb levels of Se.

[4] = Cocrystallization from equimolar sulfate/selenate mixture (2.5 mM each); conditions: for selenate removal / sulfate removal: 2.5 mM sulfate + 2.5 mM selenate; for ratio of sulfate to selenate % removal: equimolar mixture
Procedure: as §1
Concomitant crystallization of sulfate and selenate with either BBIG or PyBIG led to near quantitative removal of both oxyanions from equimolar aqueous mixtures. Cocrystallization experiments were carried out keeping the concentration of sulfate and selenate at near equimolar concentrations of 2.5 mM, while the BIG concentrations were increased gradually from 5 to 50 mM. […] At higher BBIG concentrations, the oxyanion removal remained near quantitative. Referring to the ratio of sulfate to selenate % removal, a ratio of 1.0 indicates there is no preference for sulfate over selenate. […] At relative ligand concentrations higher than 1 equivalent of BBIG, the ratio of removal efficiencies approaches 1, indicating no preference between the two oxyanions by crystallization under these conditions.
PyDIG also quantitatively removed sulfate and selenate at higher BIG concentrations. […] Increasing the PyBIG concentration achieved a ratio of approximately 1, indicating no discrimination between sulfate and selenate with excess PyBIG. With both BBIG and PyBIG, it appears the 2:1 BIG:oxyanions ratio is ideal for effectively removing SO4^2− and SeO4^2− anions from solution with minimal excess of the BIG ligands.

[5] = Crystallization of individual oxyanion (5 mM) with BIG chloride, ICP-MS of filtrate; conditions: for selenate removal efficiency: 5 mM selenate alone; for sulfate removal efficiency: 5 mM sulfate alone
Procedure: as §1
Crystallization studies with BBIG and individual sulfate, selenate, or selenite anions (5 mM) were performed, while the concentration of BIGs was increased from one to ten molar equivalents. […] On the other hand, only approximately half (53.0%, FIG. 2a) of the selenite was removed from the solution with 1 equivalent of BBIG, which can be attributed to its propensity to form HScO3^−, by deprotonating BBIG in the process. […] Once again, selenite was removed to a lesser extent (70.7%) with 1 equivalent of PyBIG (FIG. 2b).

[6] = simulated groundwater (5.84 mM sulfate, 0.65 μM selenate), 1 equiv BIG
[7] = simulated groundwater, 2 equiv BIG
[8] = simulated leachate (48.49 mM sulfate, 2.37 μM selenate), 1 equiv BIG
[9] = simulated leachate, 2 equiv BIG
[10] = 1 molar equivalent BIG relative to total oxyanion
[11] = BIG increased to 2 equivalents (PyBIG: increased concentration, plateau after 2 equivalents)
[12] = BIG at twice the oxyanion concentration (10 mM)

For `N=C(N)N/N=C/c1cccc(/C=N/NC(=N)N)n1` [PyBIG, pyridinedialdehydebis(iminoguanidinium)], which selenate removal ([1]; 1 equiv BIG) is on record?
Its selenate removal is 75.6%.

What about the sulfate removal ([1]; 1 equiv BIG) of the same molecule?
Its sulfate removal is 82.3%.

And the selenate removal ([1]; 2 equiv BIG)?
Its selenate removal is over 99.7%.

What about the sulfate removal ([1]; 2 equiv BIG) of the same molecule?
Its sulfate removal is over 99.7%.

What about the selenate removal [2, 6] of the same molecule?
The selenate removal was 81.6%.

What about the sulfate removal [2, 6] of the same molecule?
Its sulfate removal is 88.5%.

What about the “final Se concentration” value ([2]; simulated groundwater, 1 equiv BIG) of the same molecule?
Its value is 9.39±0.34 ppb.

And the “final Se concentration” value [2, 7]?
The value was 0.02±0.01 ppb.

What about the selenate removal [2, 7] of the same molecule?
Its selenate removal is 99.96%.

And the sulfate removal [2, 7]?
The sulfate removal was 99.94%.

And the sulfate-to-selenate removal ratio ([3]; simulated groundwater and leachate)?
The sulfate-to-selenate removal ratio was “approximately one”.

And the selenate removal [3, 8]?
Its selenate removal is 85.5%.

What about the sulfate removal [3, 8] of the same molecule?
Its sulfate removal is 89.2%.

And the “final Se concentration” value ([3]; simulated leachate, 1 equiv BIG)?
Its value is 27.23±0.92 ppb.

What about the “final Se concentration” value [3, 9] of the same molecule?
The value was 0.02±0.01 ppb.

What about the selenate removal [3, 9] of the same molecule?
The selenate removal was 99.99%.

What about the sulfate removal [3, 9] of the same molecule?
The sulfate removal was 99.98%.

And the selenate removal [4, 10]?
Its selenate removal is 75.6%.

And the sulfate removal [4, 10]?
The sulfate removal was 82.3%.

And the selenate removal [4, 11]?
Its selenate removal is 99.7%.

What about the sulfate removal [4, 11] of the same molecule?
The sulfate removal was 97.8%.

And the “ratio of sulfate to selenate % removal” value ([4]; 1 equivalent BIG, 1.0 = no preference)?
The value was 0.84.

And the “ratio of sulfate to selenate % removal” value ([4]; more than 1 equivalent (excess) BIG)?
The value was “approximately 1”.

And the selenate removal efficiency ([5]; 5 mM (1 equiv) BIG)?
The selenate removal efficiency was 93.9%.

What about the selenate removal efficiency [5, 12] of the same molecule?
Its selenate removal efficiency is 99.8%.

What about the selenite removal efficiency ([5]; 5 mM selenite alone, 1 equivalent BIG) of the same molecule?
The selenite removal efficiency was 70.7%.

And the sulfate removal efficiency ([5]; 5 mM (1 equiv) BIG, 24 h, 25 C)?
Its sulfate removal efficiency is 95.0%.

And the sulfate removal efficiency [5, 12]?
The sulfate removal efficiency was 99.9%.
